{"source": "patent US20250268830A1", "about": "“SUSTAINED RELEASE INJECTABLE PHARMACEUTICAL FORMULATION OF LEVOTHYROXINE AND PROCESS FOR PREPARATION THEREOF” (PHARMATHEN S.A., priority 2021, published 2025)", "key": {"[1]": {"test": "solubility of the API in MeOH", "type": "physicochemical", "settings": "20° C.", "method": "The solubility at 20° C. of the API in MeOH was determined as follows: approximately 50 mg Levothyroxine sodium were weighed in a vial. Methanol was gradually added until the solution became clear."}, "[2]": {"test": "LVX solubility in DCM/MeOH 10/3 with PLGA (evaluation of maximum theoretical drug loading)", "type": "physicochemical", "method": "A quantity of approximately 0.25 g of polymer and varying quantities of LVX corresponding to theoretical drug loading values 1%, 2%, 3% and 4% were weighed in four vials. A DCM/MeOH mixture at a ratio of 10/3 (to ensure the polymer is always dissolved) was gradually added in each vial. The respective PLGA (PURASORB PDLG 5002A) concentrations, % LVX content and LVX solubility were evaluated and are presented in the table below."}}, "data": [{"smiles": "N[C@@H](Cc1cc(I)c(Oc2cc(I)c(O)c(I)c2)c(I)c1)C(=O)O", "note": "[Levothyroxine sodium]", "values": [{"measurement": "solubility in MeOH", "setting": "[1]", "result": "3.41 % mass LVX/mass of MeOH"}, {"measurement": "ratio LVX/(DCM+MeOH) at which levothyroxine is dissolved", "setting": "[2]; DCM/MeOH 10/3 with PLGA", "result": "below 0.1%"}, {"measurement": "LVX Solubility", "setting": "[2]; Vial 1, 1.0% TDL, DCM+MeOH 2.5 g, 0.11% LVX in mix, 13.01% PLGA in DCM", "result": "Insoluble"}, {"measurement": "LVX Solubility", "setting": "[2]; Vial 1, 1.0% TDL, DCM+MeOH 3.3 g, 0.08% LVX in mix, 9.99% PLGA in DCM", "result": "Almost Clear"}, {"measurement": "LVX Solubility", "setting": "[2]; Vial 1, 1.0% TDL, DCM+MeOH 4.3 g, 0.06% LVX in mix, 7.63% PLGA in DCM", "result": "Clear"}, {"measurement": "LVX Solubility", "setting": "[2]; Vial 1, 1.0% TDL, DCM+MeOH 5.5 g, 0.05% LVX in mix, 5.92% PLGA in DCM", "result": "Clear"}, {"measurement": "LVX Solubility", "setting": "[2]; Vial 2, 2.0% TDL, DCM+MeOH 2.6 g, 0.20% LVX in mix, 12.58% PLGA in DCM", "result": "Slurry"}, {"measurement": "LVX Solubility", "setting": "[2]; Vial 2, 2.0% TDL, DCM+MeOH 3.3 g, 0.16% LVX in mix, 10.05% PLGA in DCM", "result": "Sluny"}, {"measurement": "LVX Solubility", "setting": "[2]; Vial 2, 2.0% TDL, DCM+MeOH 4.3 g, 0.12% LVX in mix, 7.69% PLGA in DCM", "result": "Less Slurry"}, {"measurement": "LVX Solubility", "setting": "[2]; Vial 2, 2.0% TDL, DCM+MeOH 5.6 g, 0.09% LVX in mix, 5.92% PLGA in DCM", "result": "Almost Clear"}, {"measurement": "LVX Solubility", "setting": "[2]; Vial 3, 3.0% TDL, DCM+MeOH 2.6 g, 0.30% LVX in mix, 12.69% PLGA in DCM", "result": "Shary"}, {"measurement": "LVX Solubility", "setting": "[2]; Vial 3, 3.0% TDL, DCM+MeOH 3.3 g, 0.24% LVX in mix, 9.97% PLGA in DCM", "result": "Slurry"}, {"measurement": "LVX Solubility", "setting": "[2]; Vial 3, 3.0% TDL, DCM+MeOH 4.2 g, 0.18% LVX in mix, 7.70% PLGA in DCM", "result": "Less Shury"}, {"measurement": "LVX Solubility", "setting": "[2]; Vial 3, 3.0% TDL, DCM+MeOH 5.5 g, 0.14% LVX in mix, 5.95% PLGA in DCM", "result": "Less Slurry"}, {"measurement": "LVX Solubility", "setting": "[2]; Vial 3, 3.0% TDL, DCM+MeOH 7.7 g, 0.10% LVX in mix, 4.25% PLGA in DCM", "result": "Almost Clear"}, {"measurement": "LVX Solubility", "setting": "[2]; Vial 3, 3.0% TDL, DCM+MeOH 9.6 g, 0.08% LVX in mix, 3.39% PLGA in DCM", "result": "Almost Clear"}, {"measurement": "LVX Solubility", "setting": "[2]; Vial 3, 3.0% TDL, DCM+MeOH 12.3 g, 0.06% LVX in mix, 2.65% PLGA in DCM", "result": "Clear"}, {"measurement": "LVX Solubility", "setting": "[2]; Vial 4, 4.0% TDL, DCM+MeOH 2.6 g, 0.39% LVX in mix, 12.33% PLGA in DCM", "result": "Slurry"}, {"measurement": "LVX Solubility", "setting": "[2]; Vial 4, 4.0% TDL, DCM+MeOH 3.3 g, 0.31% LVX in mix, 9.82% PLGA in DCM", "result": "Shary"}, {"measurement": "LVX Solubility", "setting": "[2]; Vial 4, 4.0% TDL, DCM+MeOH 4.3 g, 0.24% LVX in mix, 7.56% PLGA in DCM", "result": "Slurry"}, {"measurement": "LVX Solubility", "setting": "[2]; Vial 4, 4.0% TDL, DCM+MeOH 5.6 g, 0.19% LVX in mix, 5.87% PLGA in DCM", "result": "Less Slurry"}]}]}
